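In this assay, cells in 96-well plates receive the compound at five concentrations for 48 hours. Endpoints are linearly interpolated between the surrounding concentrations. TGI denotes the concentration required for complete inhibition of growth.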
Columns and labels:
Test in all cases: NCI tumour cell line growth inhibition, 48 h
[1] = system: 786-0 renal
[2] = system: A498 renal
[3] = system: A549 NSCLC
[4] = system: ACHN renal
[5] = system: CAKI-1 renal
[6] = system: CCRF-CEM leukemia
[7] = system: COLO 205 colon
[8] = system: DLD-1 colon
[9] = system: DMS 114 small cell lung
[10] = system: DMS 273 small cell lung
[11] = system: EKVX NSCLC
[12] = system: HCC-2998 colon
[13] = system: HCT-116 colon
[14] = system: HCT-15 colon
[15] = system: HL-60(TB) leukemia
[16] = system: HOP-18 NSCLC
[17] = system: HOP-62 NSCLC
[18] = system: HOP-92 NSCLC
[19] = system: HT29 colon
[20] = system: IGROV1 ovarian
[21] = system: K-562 leukemia
[22] = system: KM12 colon
[23] = system: KM20L2 colon
[24] = system: LOX IMVI melanoma
[25] = system: LXFL 529 NSCLC
[26] = system: M14 melanoma
[27] = system: M19-MEL melanoma
[28] = system: MALME-3M melanoma
[29] = system: MCF7 breast
[30] = system: MOLT-4 leukemia
[31] = system: NCI-H226 lung
[32] = system: NCI-H23 lung
[33] = system: NCI-H460 lung
[34] = system: NCI-H522 lung
[35] = system: NCI/ADR-RES ovarian
[36] = system: OVCAR-3 ovarian
[37] = system: OVCAR-4 ovarian
[38] = system: OVCAR-5 ovarian
[39] = system: OVCAR-8 ovarian
[40] = system: P388 leukemia
[41] = system: RPMI-8226 leukemia
[42] = system: RXF 393 renal
[43] = system: RXF-631 renal
[44] = system: SF-268 CNS
[45] = system: SF-295 CNS
[46] = system: SF-539 CNS
[47] = system: SK-MEL-2 melanoma
[48] = system: SK-MEL-28 melanoma
[49] = system: SK-MEL-5 melanoma
[50] = system: SK-OV-3 ovarian
[51] = system: SN12C renal
[52] = system: SN12K1 renal
[53] = system: SNB-19 CNS
[54] = system: SNB-75 CNS
[55] = system: SNB-78 CNS
[56] = system: SW-620 colon
[57] = system: TK-10 renal
[58] = system: U251 CNS
[59] = system: UACC-257 melanoma
[60] = system: UACC-62 melanoma
[61] = system: UO-31 renal

CCOC(=O)COc1ccccc1/C=C1\CCC(CN(C)C)C1=O (stereo unspecified)
TGI [1]: 11.7 µM | TGI [2]: 31.3 µM | TGI [3]: 42.8 µM | TGI [4]: 26.9 µM | TGI [5]: 10.9 µM | TGI [6]: 8.42 µM | TGI [7]: 11.1 µM | TGI [8]: 12.2 µM | TGI [9]: 24.2 µM | TGI [10]: 8.17 µM | TGI [11]: 34.7 µM | TGI [12]: 7.98 µM | TGI [13]: 9.36 µM | TGI [14]: 9.86 µM | TGI [15]: 2.58 µM | TGI [16]: 37.9 µM | TGI [17]: 35.8 µM | TGI [18]: 25.8 µM | TGI [19]: 22.6 µM | TGI [20]: 30.4 µM | TGI [21]: 6.51 µM | TGI [22]: 13.3 µM | TGI [23]: 30.2 µM | TGI [24]: 5.43 µM | TGI [25]: 6.36 µM | TGI [26]: 22.6 µM | TGI [27]: 8.98 µM | TGI [28]: 12 µM | TGI [29]: 19.8 µM | TGI [30]: 4.61 µM | TGI [31]: 32.8 µM | TGI [32]: 19.3 µM | TGI [33]: 33.7 µM | TGI [34]: 6.01 µM | TGI [35]: > 44 µM | TGI [36]: 20.6 µM | TGI [37]: 31.8 µM | TGI [38]: 32.4 µM | TGI [39]: 15.1 µM | TGI [40]: 1.54 µM | TGI [41]: 3.48 µM | TGI [42]: 7.94 µM | TGI [43]: 34.4 µM | TGI [44]: 12.7 µM | TGI [45]: 35.5 µM | TGI [46]: 26.6 µM | TGI [47]: 24.7 µM | TGI [48]: 7.21 µM | TGI [49]: 22.4 µM | TGI [50]: 31.4 µM | TGI [51]: 14.1 µM | TGI [52]: 3.47 µM | TGI [53]: 20.6 µM | TGI [54]: 29.5 µM | TGI [55]: 62.6 µM | TGI [56]: 6.64 µM | TGI [57]: 25.6 µM | TGI [58]: 14.8 µM | TGI [59]: 16.3 µM | TGI [60]: 17.4 µM | TGI [61]: 29.9 µM

Reference: PubChem BioAssay (NCI)
